The values below come from PMC7796460, “Relation of Metal-Binding Property and Selective Toxicity of 8-Hydroxyquinoline Derived Mannich Bases Targeting Multidrug Resistant Cancer Cells” (Cancers, 2021).

The nature of data set [1]: pKa by UV-visible spectrophotometric titrations. The data set is classed as physicochemical. The following applies: 0.2 M KCl (ionic strength), T = 25 °C, I = 0.2 M (KCl).
Data set [2] relates to MES-SA cells. The data set can be described thus: MTT viability assay, MES-SA. The data set is classed as cell-based, human. From the text: (§1) MDCK II canine kidney cells, A431 epidermoid carcinoma cells, the human uterine sarcoma cell lines MES-SA and the doxorubicin selected MES-SA-Dx5 were obtained from ATCC (MDCK II: No. CRL-2936™, A431: No. CRL-1555™, MES-SA: No. CRL-1976™, MES-SA/Dx5: No. CRL-1977™). ABCB1 was expressed in A431 and MES-SA cells using lentiviral transduction. The human cervix carcinoma cell line KB-3-1 and the vinblastine selected KB-v1were kind gifts from Dr. Michael M. Gottesman, National Institutes of Health. The phenotype of the resistant cells was verified using cytotoxicity assays. MDCK-B1 and MDCK-MM were established by the Sleeping Beauty transposon-based gene delivery system. OVCAR-8 and NCI-ADRres cells (obtained from the Division of Cancer Treatment and Diagnosis (DCTD) Tumor Repository (National Cancer Institute, Frederick, MD, USA)) were cultivated in RPMI-1640 (Sigma Aldrich, Budapest, Hungary), and other cell lines were cultivated in Dulbecco’s Modified Eagle Medium (DMEM, Sigma Aldrich, Budapest, Hungary), supplemented with 10% fetal bovine serum, 5 mM glutamine, and 50 unit/mL penicillin and streptomycin (Life Technologies, Carlsbad, CA, USA). All cell lines were cultivated at 37 °C, 5% CO2.
(§2) MTT viability assays were performed as described earlier with minor modifications. Briefly, cells were seeded into 96-well tissue culture plates (Sarstedt, Newton, NC, USA/Orange, Braine-l’Alleud, Belgium) at a density of 5000 cells/well and allowed to attach overnight. Test compounds were added to achieve the required final concentration in a final volume of 100 µL per well. After an incubation period of 72 h, the supernatant was removed and fresh medium containing the MTT reagent (0.083 mg/mL) was added. Incubation with MTT at 37 °C was terminated after 1 h by removing the supernatant and lysing the cells with 100 µL DMSO per well. Viability of the cells was measured spectrophotometrically based on the absorbance values at 540 nm using either a Perkin Elmer Victor X3 or an EnSpire microplate reader. Data were background corrected by subtraction of the signal obtained from unstained cell lysates and normalized to untreated cells. Curves were fitted by Prism software (GraphPad Software Inc., San Diego, CA, USA) using the sigmoidal dose-response model (comparing variable and fixed slopes). […] Significance was calculated using unpaired t-tests; results are given as *: p ≤ 0.05, **: p ≤ 0.01, ***: p ≤ 0.001, ****: p ≤ 0.0001.
(Formazan colour is commonly taken as a measure of viable cells.)

Data set [3] concerns MES-SA/Dx5 cells. Kind of data set: MTT viability assay, MES-SA/Dx5. The data set is classed as cell-based, human. The following applies: for SR: Table S1, IC50 Pgp negative divided by Pgp positive cells; for SR_TQ: Table S1, presence of 1 µM TQ.
Source text: as §1, §2

The subject of data set [4] is MES-SA/Dx5 cells. The data set can be described thus: ROS determination with DCFDA, MES-SA/Dx5. The following applies: 2 h. Format: cell-based, human. On the procedure:
(§3) Measurements were performed as described earlier. Briefly, cells were harvested, washed with PBS, and incubated with 10 µM DCFDA in a water bath shaker at 37 °C for 30 min in a density of 3 × 10^6 cells/mL. After washing with PBS, cells were seeded to 96-well plates in PBS in a density of 2 × 10^4 cells/well. Following the measurement of the basal fluorescence, test compounds were added in different concentrations and the fluorescence of the samples was followed at time intervals of 10 min. DCFDA solution in buffer was used as a cell free control to test for interaction of the test compounds with DCFDA. Data were analyzed as fold change of fluorescence compared to basal levels and untreated cells. Significance was calculated using unpaired t-tests; results are given as *: p ≤ 0.05, **: p ≤ 0.01, ***: p ≤ 0.001, ****: p ≤ 0.0001.
(§4) Table S3: Characterization of intracellular ROS production with the DCFDA assay for P -gp negative MES-SA and P-gp positive MES-SA/Dx5 cells. Fold changes in fluorescence are shown after a 2 h with the investigated 8 -hydroxyquinoline ligands. Data S-refer to Figure 7 and allow […]
(§5) concentration range from 6.25µ M to 50µ M. Fold change of fluorescence obtained in the presence of 5 mM NAC is given in brackets.

Data set [5] has as its system MES-SA cells. Kind of data set: ROS determination with DCFDA, MES-SA. Format: cell-based, human. The following applies: 2 h. How it is done:
as §3, §4, §5

The mark [6] stands for this setting: group named in the cell (NmorpholiniumH+, NpiperidiniumH+, NbenzylamineH2+), read-out: pKa (additional).
The mark [7] stands for this setting: Homo sapiens, MES-SA, Table 2, value outside brackets, read-out: MES-SA (toxicity, Table 2).
[8] abbreviates: Homo sapiens, MES-SA/Dx5, Table 2, value outside brackets, read-out: MES-SA/Dx5 (toxicity, Table 2).
Where [9] appears, read: Table 2, value outside brackets.
The mark [10] stands for this setting: Table S1, calculated as ligand equivalents, presence of 1 µM TQ, read-out: IC50 MES-SA_TQ.
The mark [11] stands for this setting: Table S1, ligands and in situ preformed complexes, calculated as ligand equivalents, absence of TQ, read-out: IC50 MES-SA.
The mark [12] stands for this setting: Table S1, calculated as ligand equivalents, absence of TQ, read-out: IC50 Dx5.
Setting [13] is: Table S1, calculated as ligand equivalents, presence of 1 µM TQ, read-out: IC50 Dx5_TQ.

SMILES strings stand for the structures. Read-outs that look alike come from different tables or passages of the source.

As a reminder, the pKa is the pH at which an ionisable group is half protonated. For `Oc1c(CNCc2ccccc2F)ccc2ccccc12` [NC-4, 2-((2-fluorobenzylamino)methyl)naphthalen-1-ol], the pKa was 9.72 ± 0.02 in data set [1] (setting [6]) and 5.5 ± 0.02 in data set [1] (read-out: pKa (OH)). Moreover, the IC50 in data set [2] (setting [7]) came out at 44.7 ± 4.52 µM; in data set [3] (setting [8]), 31100 ± 2170 nM. Also, in data set [3] (setting [9]), the “SR MES-SA/Dx5 (Table 2)” value is 1.44.

On to `[Cu+2].[O-]c1c(CN2CCCCC2)ccc2cccnc12.[O-]c1c(CN2CCCCC2)ccc2cccnc12` [1/2 [Cu(Q-3)2]], for which the IC50 in data set [2] (setting [10]) was 2.13 ± 0.65 µM; in data set [2] (setting [11]), 1.91 ± 0.59 µM; in data set [3] (setting [12]), 760 ± 260 nM; in data set [3] (setting [13]), 2040 ± 360 nM. In data set [3] (absence of TQ), this compound gave an SR of 2.52. The SR_TQ in data set [3] is on record as 1.04.

For `[Fe+3].[O-]c1c(CNCc2ccccc2F)cc(Cl)c2cccnc12.[O-]c1c(CNCc2ccccc2F)cc(Cl)c2cccnc12.[O-]c1c(CNCc2ccccc2F)cc(Cl)c2cccnc12` [1/3 [Fe(Q-4)3]], the IC50 in data set [2] (setting [10]) was 3.54 ± 0.13 µM; in data set [2] (setting [11]) it was 2.95 ± 1.33 µM; in data set [3] (setting [12]), 220 ± 120 nM; in data set [3] (setting [13]), 3450 ± 330 nM. For the same compound, the SR in data set [3] (absence of TQ) was found to be 13.14. Further, the SR_TQ in data set [3] is recorded as 1.03.

Take `[Fe+3].[O-]c1c(CN2CCCCC2)ccc2cccnc12.[O-]c1c(CN2CCCCC2)ccc2cccnc12.[O-]c1c(CN2CCCCC2)ccc2cccnc12` [1/3 [Fe(Q-3)3]]: the IC50 in data set [2] (setting [10]) was 1.82 ± 0.71 µM; in data set [2] (setting [11]) it was 2.12 ± 0.68 µM; in data set [3] (setting [12]), 910 ± 220 nM; in data set [3] (setting [13]), 1450 ± 250 nM. In addition, in data set [3] (absence of TQ), the SR was 2.33. Further, in data set [3], the SR_TQ was 1.25.

Consider `Oc1c(CN2CCOCC2)ccc2ccccc12` [NC-2, 2-(morpholino-methyl)naphthalen-1-ol], for which the pKa turned out to be 6.61 ± 0.02 in data set [1] (setting [6]) and 9.21 ± 0.02 in data set [1] (read-out: pKa (OH)). The values for the IC50 in data set [2] (setting [7]) and in data set [3] (setting [8]) were 422 ± 34.9 µM and 562000 ± 36800 nM, respectively. Besides, the “SR MES-SA/Dx5 (Table 2)” value in data set [3] (setting [9]) turned out to be 0.75.

With `[Cu+2].[O-]c1cccc2cccnc12.[O-]c1cccc2cccnc12` [1/2 [Cu(Q-1)2]], the IC50 was 4.14 ± 1.2 µM in data set [2] (setting [10]), 3.77 ± 0.66 µM in data set [2] (setting [11]), 2030 ± 460 nM in data set [3] (setting [12]) and 2610 ± 440 nM in data set [3] (setting [13]). In data set [3] (absence of TQ), this compound registered an SR of 1.86. The SR_TQ in data set [3] amounted to 1.58.

With `[Cu+2].[O-]c1c(CNCc2ccccc2F)cc(Cl)c2cccnc12.[O-]c1c(CNCc2ccccc2F)cc(Cl)c2cccnc12` [1/2 [Cu(Q-4)2]], the IC50 was 1.36 ± 0.26 µM in data set [2] (setting [10]), 1.46 ± 0.16 µM in data set [2] (setting [11]), 290 ± 39 nM in data set [3] (setting [12]) and 1220 ± 25 nM in data set [3] (setting [13]). In data set [3] (absence of TQ), this compound had an SR of 5.03. The SR_TQ in data set [3] is 1.11.

In the case of `Oc1ccc(Cl)c2cccnc12` [Compound 5-Cl-Q-1], the “Fold change in fluorescence (DCFDA)” value worked out at 1.203± 0.32 in data set [4] (MES-SA/Dx5, 6.25 µM); 1.279± 0.21 in data set [4] (MES-SA/Dx5, 6.25 µM, presence of 5 mM NAC (brackets)); 1.291± 0.48 in data set [4] (MES-SA/Dx5, 12.5 µM); 1.187± 0.23 in data set [4] (MES-SA/Dx5, 12.5 µM, presence of 5 mM NAC (brackets)); 1.355± 0.46 in data set [4] (MES-SA/Dx5, 25 µM); 1.220± 0.22 in data set [4] (MES-SA/Dx5, 25 µM, presence of 5 mM NAC (brackets)). The “Fold change in fluorescence (DCFDA)” value was found to be 1.206± 0.49 in data set [4] (MES-SA/Dx5, 50 µM); 1.152± 0.06 in data set [4] (MES-SA/Dx5, 50 µM, presence of 5 mM NAC (brackets)); 1.147± 0.32 in data set [5] (6.25 µM); 1.668± 0.35 in data set [5] (6.25 µM, presence of 5 mM NAC (brackets)); 1.119± 0.30 in data set [5] (12.5 µM); 1.418± 0.24 in data set [5] (12.5 µM, presence of 5 mM NAC (brackets)). Also, the “Fold change in fluorescence (DCFDA)” value in data set [5] (25 µM) is on record as 1.071± 0.35; in data set [5] (25 µM, presence of 5 mM NAC (brackets)), 1.443± 0.22; in data set [5] (50 µM), 0.891± 0.34; in data set [5] (50 µM, presence of 5 mM NAC (brackets)) it was 1.209± 0.23. The IC50 amounted to 10.4 ± 1.71 µM in data set [2] (setting [7]) and 9660 ± 2480 nM in data set [3] (setting [8]). The “SR MES-SA/Dx5 (Table 2)” value in data set [3] (Table 2, value in brackets (Tariquidar as in Table 1)) is given as 1.46; in data set [3] (setting [9]) it was 1.08.

On to `[Fe+3].[O-]c1c(CN2CCOCC2)ccc2cccnc12.[O-]c1c(CN2CCOCC2)ccc2cccnc12.[O-]c1c(CN2CCOCC2)ccc2cccnc12` [1/3 [Fe(Q-2)3]], for which the IC50 in data set [2] (setting [10]) is 4.35 ± 0.58 µM; in data set [2] (setting [11]), 3.87 ± 0.88 µM; in data set [3] (setting [12]), 3130 ± 840 nM; in data set [3] (setting [13]), 4230 ± 520 nM. This compound showed an SR in data set [3] (absence of TQ) of 1.24. Also, the SR_TQ in data set [3] was found to be 1.03.

With `[Cu+2].[O-]c1c(CN2CCOCC2)ccc2cccnc12.[O-]c1c(CN2CCOCC2)ccc2cccnc12` [1/2 [Cu(Q-2)2]], the IC50 is 2.02 ± 0.65 µM in data set [2] (setting [10]), 2.27 ± 0.67 µM in data set [2] (setting [11]), 1760 ± 560 nM in data set [3] (setting [12]) and 1920 ± 450 nM in data set [3] (setting [13]). In data set [3] (absence of TQ), this compound returned an SR of 1.29. In data set [3], the SR_TQ was found to be 1.05.

Turning to `Oc1c(CN2CCCCC2)ccc2ccccc12` [NC-3, 2-(piperidin-1-ylmethyl)naphthalen-1-ol], the pKa in data set [1] (setting [6]) came out at 10.12 ± 0.01; in data set [1] (read-out: pKa (OH)) it was 6.06 ± 0.01. The IC50 in data set [2] (setting [7]) came to 140 ± 47.9 µM; in data set [3] (setting [8]), 163000 ± 16600 nM. The “SR MES-SA/Dx5 (Table 2)” value in data set [3] (setting [9]) is recorded as 0.86.

With `[Fe+3].[O-]c1cccc2cccnc12.[O-]c1cccc2cccnc12.[O-]c1cccc2cccnc12` [1/3 [Fe(Q-1)3]], the IC50 in data set [2] (setting [10]) is 3.07 ± 0.36 µM; in data set [2] (setting [11]) it was 3.31 ± 0.52 µM; in data set [3] (setting [12]) it was 2920 ± 800 nM; in data set [3] (setting [13]), 2960 ± 640 nM. Moreover, in data set [3] (absence of TQ), the SR stood at 1.13. The SR_TQ in data set [3] stood at 1.04.

With `CC(=O)N[C@@H](CS)C(=O)O` [NAC, N-acetyl cysteine, reference compound], the “Effect on viability of the cells, alone” value in data set [2] (5 mM, MES-SA) was “did not influence the viability”; in data set [3] (5 mM, MES-SA/Dx5), “did not influence the viability”.
